Laboratory results taken from ChEMBL document CHEMBL5543172, “Novel Isoalantolactone-Based Derivatives as Potent NLRP3 Inflammasome Inhibitors: Design, Synthesis, and Biological Characterization” (J Med Chem, 2024).

Legend:
[1] = Metabolic stability in mouse liver microsomes assessed as half life preincubated for 5 mins followed by NADPH addition and measured upto 60 mins by LC-MS/MS analysis; assay type: ADME, Microsome; conditions: time < 65 min
[2] = Metabolic stability in human liver microsomes assessed as half life preincubated for 5 mins followed by NADPH addition and measured upto 60 mins by LC-MS/MS analysis; assay type: ADME, Microsome; conditions: time < 65 min
[3] = AUC (0 to t) in male C57BL/6 mouse at 30 mg/kg, ip measured upto 1440 mins by LC-MS/MS analysis; assay type: ADME, organism-based; conditions: in vivo
[4] = MRT (0 to t) in male C57BL/6 mouse at 30 mg/kg, ip measured upto 1440 mins by LC-MS/MS analysis; assay type: ADME, organism-based; conditions: in vivo
[5] = Tmax in male C57BL/6 mouse at 30 mg/kg, ip measured upto 1440 mins by LC-MS/MS analysis; assay type: ADME, organism-based; conditions: in vivo
[6] = Half life in male C57BL/6 mouse at 30 mg/kg, ip measured upto 1440 mins by LC-MS/MS analysis; assay type: ADME, organism-based; conditions: in vivo
[7] = Cmax in male C57BL/6 mouse at 30 mg/kg, ip measured upto 1440 mins by LC-MS/MS analysis; assay type: ADME, organism-based; conditions: in vivo
[8] = Apparent oral clearance in male C57BL/6 mouse at 30 mg/kg, ip measured upto 1440 mins by LC-MS/MS analysis; assay type: ADME, organism-based; conditions: in vivo, read-out: CLz/F (converted)
[9] = Drug distribution in C57BL/6 mouse colon at 30 mg/kg, ip measured after 0.5 hrs by LC-MS/MS analysis; assay type: ADME, organism-based; conditions: read-out: Drug uptake
[10] = Drug distribution in C57BL/6 mouse colon at 30 mg/kg, ip measured after 2 hrs by LC-MS/MS analysis; assay type: ADME, organism-based; conditions: read-out: Drug uptake
[11] = Drug distribution in C57BL/6 mouse colon at 30 mg/kg, ip measured after 8 hrs by LC-MS/MS analysis; assay type: ADME, organism-based; conditions: read-out: Drug uptake
[12] = Drug distribution in C57BL/6 mouse colon at 30 mg/kg, ip measured after 24 hrs by LC-MS/MS analysis; assay type: ADME, organism-based; conditions: read-out: Drug uptake
[13] = Drug distribution in C57BL/6 mouse plasma at 30 mg/kg, ip measured after 0.5 hrs by LC-MS/MS analysis; assay type: ADME, organism-based
[14] = Drug distribution in C57BL/6 mouse plasma at 30 mg/kg, ip measured after 2 hrs by LC-MS/MS analysis; assay type: ADME, organism-based

| Structure (SMILES) | half-life [1] | half-life [2] | also measured |
| --- | --- | --- | --- |
| C=C1C(=O)O[C@@H]2C[C@@]3(C)CC[C@@H](OC(=O)/C=C/C(=O)c4ccc(F)cc4)C(=C)[C@@H]3C[C@H]12 | 44.1 min | 31.1 min | – |
| C=C1C(=O)O[C@@H]2C[C@@]3(C)CC[C@@H](OC(=O)c4c(Cl)ccnc4Cl)C(=C)[C@@H]3C[C@H]12 | 47.1 min | 118 min | – |
| C=C1C(=O)O[C@@H]2C[C@@]3(C)CC[C@@H](OC(=O)/C=C/C(=O)c4ccccc4)C(=C)[C@@H]3C[C@H]12 | 19.2 min | 10.4 min | – |
| C=C1C(=O)O[C@@H]2C[C@@]3(C)CCCC(=C)[C@@H]3C[C@H]12 [ISOALANTOLACTONE] | 9.1 min | 4.47 min | AUC(0-t) at 24 h [3]: 230 ng·h/mL; MRT last at 24 h [4]: 110 min; Tmax [5]: 13.2 min; half-life [6]: 127 min; Cmax [7]: 159 ng/mL; CL/F [8]: 2020 mL/min/kg; concentration at 0.5 h [9]: 3320 ng/g; concentration at 2 h [10]: 293 ng/g; concentration at 8 h [11]: 3120 ng/g; concentration at 24 h [12]: 26.9 ng/g; concentration at 0.5 h [13]: 27.4 ng/mL; concentration at 2 h [14]: 7.71 ng/mL |
| C=C1C(=O)O[C@@H]2C[C@@]3(C)CC[C@@H](OC(=O)/C=C/C(=O)c4ccc(C(F)(F)F)cc4)C(=C)[C@@H]3C[C@H]12 | 27.2 min | 20.6 min | – |
| C=C1C(=O)O[C@@H]2C[C@@]3(C)CC[C@@H](OC(=O)c4cc(Cl)cnc4Cl)C(=C)[C@@H]3C[C@H]12 | 12.6 min | 95.7 min | – |
